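Exposure lasted 48 hours, with cells grown in 96-well plates and compounds tested at five concentrations. At the GI50, growth is halved.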 Calls of active or inactive are those of the source. No stated cut-off is given here; in the data, active = GI50 up to about 1.1 µM and inactive = higher.
What was measured:
Assay in all cases: inhibition of tumour cell growth, NCI panel, 48 h
Malme-3M = system: Malme-3M
SW-620 = system: SW-620
SNB-19 = system: SNB-19
MOLT-4 = system: MOLT-4
RXF 393 = system: RXF 393
BT-549 = system: BT-549
SK-MEL-2 = system: SK-MEL-2
SNB-75 = system: SNB-75
HT-29 = system: HT-29
NCI/ADR-RES = system: NCI/ADR-RES
COLO 205 = system: COLO 205
NCI-H23 = system: NCI-H23
MDA-N = system: MDA-N
SK-OV-3 = system: SK-OV-3
SK-MEL-28 = system: SK-MEL-28
U-251 = system: U-251
EKVX = system: EKVX
K562 = system: K562
SN12C = system: SN12C
T47D = system: T47D

Measured: GI50

N=C(N)NS(=O)(=O)c1ccc(Nc2c3ccccc3nc3ccc(C(=O)Nc4ccc(S(N)(=O)=O)cc4)cc23)cc1
inactive: Malme-3M > 100 µM | SW-620 > 100 µM | SNB-19 > 100 µM | MOLT-4 > 100 µM | RXF 393 > 100 µM | BT-549 > 100 µM | SK-MEL-2 > 100 µM | SNB-75 > 100 µM | HT-29 > 100 µM | NCI/ADR-RES > 100 µM | COLO 205 > 100 µM | NCI-H23 > 100 µM | MDA-N > 100 µM | SK-OV-3 > 100 µM | SK-MEL-28 > 100 µM | U-251 > 100 µM | EKVX > 100 µM | K562 > 100 µM | SN12C > 100 µM | T47D > 100 µM

Cn1c(N)nc(-c2ccc(Cl)cc2)c1SSc1c(-c2ccc(Cl)cc2)nc(N)n1C
inactive: Malme-3M 2.3 µM | SW-620 2.07 µM | SNB-19 14.7 µM | MOLT-4 5.25 µM | RXF 393 2.43 µM | BT-549 2.58 µM | SK-MEL-2 17.8 µM | SNB-75 7.67 µM | HT-29 2.3 µM | NCI/ADR-RES 2.1 µM | COLO 205 1.94 µM | NCI-H23 1.63 µM | MDA-N 1.77 µM | SK-OV-3 14.4 µM | SK-MEL-28 2.02 µM | U-251 2.03 µM | EKVX 2.73 µM | K562 2.36 µM | SN12C 3.42 µM | T47D 2.28 µM

CCOC(=O)/C=C(\C(=O)OCC)n1ccc(=O)n(Cc2cnnn2COCCOC(C)=O)c1=O
inactive: Malme-3M 2.04 µM | SW-620 2.16 µM | SNB-19 > 46.7 µM | MOLT-4 2.59 µM | RXF 393 1.85 µM | BT-549 8.28 µM | SK-MEL-2 18.4 µM | SNB-75 16.4 µM | HT-29 14.2 µM | NCI/ADR-RES 22.9 µM | COLO 205 1.77 µM | NCI-H23 17.3 µM | MDA-N 16.8 µM | SK-OV-3 53.7 µM | SK-MEL-28 10 µM | U-251 16.4 µM | EKVX 14.5 µM | K562 3.48 µM | SN12C 15.4 µM | T47D 6.11 µM

CSCCC(NC(=O)OC(C)(C)C)C(=O)NCCNc1ccc(NCCNC(=O)C(CCSC)NC(=O)OC(C)(C)C)c2c1C(=O)c1ccccc1C2=O (stereo not given)
inactive: Malme-3M 2.33 µM | SW-620 2.23 µM | SNB-19 4.75 µM | MOLT-4 3.44 µM | RXF 393 16.3 µM | BT-549 4.43 µM | SK-MEL-2 14.2 µM | SNB-75 2.37 µM | HT-29 2.64 µM | NCI/ADR-RES > 74.1 µM | COLO 205 2.22 µM | NCI-H23 4.51 µM | MDA-N 2.74 µM | SK-OV-3 8.89 µM | SK-MEL-28 1.85 µM | U-251 2.88 µM | EKVX 8.11 µM | K562 2.75 µM | SN12C 7.71 µM | T47D 5.21 µM

O=C(Nc1c(C(F)(F)F)cc(-c2ccccc2)[nH]c1=O)N1CCOCC1
inactive: Malme-3M > 100 µM | SW-620 > 100 µM | SNB-19 > 100 µM | MOLT-4 > 100 µM | RXF 393 > 100 µM | BT-549 > 100 µM | SK-MEL-2 > 100 µM | SNB-75 > 100 µM | HT-29 > 100 µM | NCI/ADR-RES > 100 µM | COLO 205 > 100 µM | NCI-H23 > 100 µM | MDA-N 77.1 µM | SK-OV-3 > 100 µM | SK-MEL-28 > 100 µM | U-251 78.5 µM | EKVX 40.2 µM | K562 > 100 µM | SN12C > 100 µM | T47D > 100 µM

— ChEMBL document CHEMBL1201862, “PubChem BioAssay data set” (2004)
